Consider six compounds from paper PMC4053473 (Molecular cancer therapeutics, 2009).

One data set is described as follows: in vivo. To be noted: SCID, mouse, iv, 5 uCi, total radioactivity.
Data set [1] deals with T1, H2009 cells (Homo sapiens, UniProt P06756+P18564). Put plainly: Cellular uptake of labeled peptide by confocal/fluorescence microscopy. It counts as cell-based. To be noted: for cellular uptake of peptide-Qdot conjugate (fluorescent/confocal microscopy): 20 nmol/L SAQdot605 conjugate, 10 min incubation.
The next data set deals with αvβ6. To be noted: cited from earlier work.
The target in data set [2] is T1, H2009 cells. The data set can be described thus: Peptide blocking of cognate H2009.1 phage uptake on H2009 cells. It counts as cell-based. To be noted: Fig. 2B, 2D, Supplementary Data.

Where no end group is shown, it is not given here.

T1 sequence (P06756 31-1048): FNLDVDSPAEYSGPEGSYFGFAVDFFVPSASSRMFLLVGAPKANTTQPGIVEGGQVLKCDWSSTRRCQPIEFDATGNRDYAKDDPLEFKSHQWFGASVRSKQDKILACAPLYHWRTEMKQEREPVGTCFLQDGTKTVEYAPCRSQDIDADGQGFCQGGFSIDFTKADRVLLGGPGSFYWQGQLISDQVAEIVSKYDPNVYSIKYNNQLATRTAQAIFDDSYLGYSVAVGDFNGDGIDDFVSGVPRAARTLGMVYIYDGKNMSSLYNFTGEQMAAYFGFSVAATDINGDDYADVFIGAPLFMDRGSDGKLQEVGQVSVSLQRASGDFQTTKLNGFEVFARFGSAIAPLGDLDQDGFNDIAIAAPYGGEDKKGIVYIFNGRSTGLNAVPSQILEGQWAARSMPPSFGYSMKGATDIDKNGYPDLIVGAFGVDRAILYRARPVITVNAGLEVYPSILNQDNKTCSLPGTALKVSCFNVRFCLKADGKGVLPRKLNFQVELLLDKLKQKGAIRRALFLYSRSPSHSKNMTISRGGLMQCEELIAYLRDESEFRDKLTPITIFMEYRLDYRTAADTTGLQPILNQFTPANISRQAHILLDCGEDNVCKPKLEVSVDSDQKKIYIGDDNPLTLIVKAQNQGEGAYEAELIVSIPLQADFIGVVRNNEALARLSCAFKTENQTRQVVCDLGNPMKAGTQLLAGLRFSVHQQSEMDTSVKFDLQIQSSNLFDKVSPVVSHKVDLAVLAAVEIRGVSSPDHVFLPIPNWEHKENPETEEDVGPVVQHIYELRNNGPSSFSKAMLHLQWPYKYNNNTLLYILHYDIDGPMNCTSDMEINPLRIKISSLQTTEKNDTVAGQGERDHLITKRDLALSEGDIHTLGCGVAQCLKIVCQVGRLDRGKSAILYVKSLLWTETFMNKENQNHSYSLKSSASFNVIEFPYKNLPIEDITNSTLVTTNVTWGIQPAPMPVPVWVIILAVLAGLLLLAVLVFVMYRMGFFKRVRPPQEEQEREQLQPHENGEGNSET
T1 sequence (P18564 22-788): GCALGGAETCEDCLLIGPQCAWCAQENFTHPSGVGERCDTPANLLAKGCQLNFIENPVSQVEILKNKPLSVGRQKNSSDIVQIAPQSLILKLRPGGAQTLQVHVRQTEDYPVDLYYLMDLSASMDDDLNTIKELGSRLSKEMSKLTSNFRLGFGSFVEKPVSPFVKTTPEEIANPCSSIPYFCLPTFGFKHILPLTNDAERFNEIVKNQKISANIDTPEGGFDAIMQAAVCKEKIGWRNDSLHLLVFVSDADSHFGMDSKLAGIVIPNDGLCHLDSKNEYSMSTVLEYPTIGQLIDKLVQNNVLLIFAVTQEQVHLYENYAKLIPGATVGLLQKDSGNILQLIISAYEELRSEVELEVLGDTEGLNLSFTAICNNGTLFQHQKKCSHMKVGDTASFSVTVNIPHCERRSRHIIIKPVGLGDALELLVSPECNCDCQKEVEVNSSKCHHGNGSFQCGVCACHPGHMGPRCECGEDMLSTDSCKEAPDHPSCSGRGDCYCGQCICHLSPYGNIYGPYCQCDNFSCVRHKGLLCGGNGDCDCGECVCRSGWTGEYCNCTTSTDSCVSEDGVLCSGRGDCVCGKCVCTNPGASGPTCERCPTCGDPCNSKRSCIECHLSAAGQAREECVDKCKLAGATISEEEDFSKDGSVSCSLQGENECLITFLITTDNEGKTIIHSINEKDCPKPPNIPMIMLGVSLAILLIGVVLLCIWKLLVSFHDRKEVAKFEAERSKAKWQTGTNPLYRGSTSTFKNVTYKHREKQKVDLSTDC

What is called tissue uptake is the percentage of the injected dose found per gram of tissue. As for `CC(C)C[C@H](NC(=O)[C@H](CCC(N)=O)NC(=O)[C@H](CCCNC(=N)N)NC(=O)[C@H](CC(C)C)NC(=O)[C@@H](NC(=O)[C@H](C)NC(=O)[C@H](CC(C)C)NC(=O)[C@H](CC(=O)O)NC(=O)CNC(=O)[C@@H](N)CCCNC(=N)N)[C@@H](C)O)C(=O)NCCOCCOCCOCCOCCOCCOCCOCCOCCOCCOCCOCCOCCC(=O)N[C@@H](CSC1CC(=O)N(CCC(=O)NCCCC[C@H](NC(=O)CCN2C(=O)CC(SC[C@H](NC(=O)CCOCCOCCOCCOCCOCCOCCOCCOCCOCCOCCOCCOCCNC(=O)[C@H](CC(C)C)NC(=O)[C@H](CCC(N)=O)NC(=O)[C@H](CCCNC(=N)N)NC(=O)[C@H](CC(C)C)NC(=O)[C@@H](NC(=O)[C@H](C)NC(=O)[C@H](CC(C)C)NC(=O)[C@H](CC(=O)O)NC(=O)CNC(=O)[C@@H](N)CCCNC(=N)N)[C@@H](C)O)C(N)=O)C2=O)C(=O)NCCCC[C@H](NC(=O)[C@H](CCCCNC(=O)CCN2C(=O)CC(SC[C@H](NC(=O)CCOCCOCCOCCOCCOCCOCCOCCOCCOCCOCCOCCOCCNC(=O)[C@H](CC(C)C)NC(=O)[C@H](CCC(N)=O)NC(=O)[C@H](CCCNC(=N)N)NC(=O)[C@H](CC(C)C)NC(=O)[C@@H](NC(=O)[C@H](C)NC(=O)[C@H](CC(C)C)NC(=O)[C@H](CC(=O)O)NC(=O)CNC(=O)[C@@H](N)CCCNC(=N)N)[C@@H](C)O)C(N)=O)C2=O)NC(=O)CCN2C(=O)CC(SC[C@H](NC(=O)CCOCCOCCOCCOCCOCCOCCOCCOCCOCCOCCOCCOCCNC(=O)[C@H](CC(C)C)NC(=O)[C@H](CCC(N)=O)NC(=O)[C@H](CCCNC(=N)N)NC(=O)[C@H](CC(C)C)NC(=O)[C@@H](NC(=O)[C@H](C)NC(=O)[C@H](CC(C)C)NC(=O)[C@H](CC(=O)O)NC(=O)CNC(=O)[C@@H](N)CCCNC(=N)N)[C@@H](C)O)C(N)=O)C2=O)C(=O)N[C@@H](CSC2CC(=O)N(CCNC(=O)CN3CCN(CC(=O)O)CCN(CC(=O)O)CCN(CC(=O)O)CC3)C2=O)C(=O)NCCC(=O)O)C1=O)C(N)=O` (stereo partly shown) [111In-labeled H2009.1 peptide, metal not drawn], the tissue uptake at 4 h in the data set “in vivo” stood at 0.84 ± 0.11 %ID/g.

With DALRLQGTLR [scrambled H2009.1 peptide], at H2009 cells [1], the “cellular uptake of peptide-Qdot conjugate (fluorescent/confocal microscopy)” value is “No uptake”.

For GFTTGRRGDLATIHGMNPF [A20LAP], in the data set on αvβ6, the “affinity for αvβ6” value is recorded as “low nanomolar range”.

As to RGDLATL [H2009.1 7-mer peptide], the “ability to block phage uptake / binding affinity for H2009 cells (in words)” value on H2009 cells [2] is listed as “retains full activity”.

Turning to RGDLATLRQL-OH, the “ability to block phage uptake / binding affinity for H2009 cells (in words)” value on H2009 cells [2] is reported as “significantly reduced affinity”.

“YAAWPASGAWTGTAPC-SAGT [H1299.2-Qdot conjugate]”: on H2009 cells [1], the “cellular uptake of peptide-Qdot conjugate (fluorescent/confocal microscopy)” value is on record as “no uptake”. Moreover, the “localization of β6 integrin after treatment with peptide-Qdot conjugate” value on H2009 cells [1] (10-min incubation, fixed, permeabilized, stained for β6) was “β6 remains localized on the cell surface”.
